Assay results taken from patent US7112553B1, “Pesticidal indazole or benzotriazole derivatives” (Syngenta Limited, priority 1999, dated 2006).

Key:
[1] = test system: Pyricularia oryzae (PYRIOR) on rice; assay type: in vivo; details: 100 ppm foliar spray; rice inoculated one day after chemical application (Prot)
[2] = test system: Puccinia recondita (PUCCRT) on wheat; details: in vivo
[3] = test system: Phytophthora infestans lycopersici (PHYTIN) on tomatoes; assay type: in vivo; details: 100 ppm foliar spray; tomatoes inoculated one day after chemical application (Prot)
[4] = test system: Uncinula necator (UNCINE) on vines; details: in vivo

Row | Structure (SMILES) | PRCO (Percentage Reduction from Control) PYRIOR Prot [1] [%] | PRCO (Percentage Reduction from Control) PUCCRT Prot [2] [%] | PRCO (Percentage Reduction from Control) PHYTIN Prot [3] [%] | PRCO (Percentage Reduction from Control) UNCINE Erad [4] [%]
1 | Cc1nsc(NC(=O)Cc2ccc3nn(Cc4ccc(F)cc4)nc3c2)c1Cl [Sample 4] | 92 |  |  | 
2 | CCCn1nc2ccc(CC(=O)Nc3snc(C)c3Cl)cc2n1 [Sample 1, N-(4-chloro-3-methylisothiazol-5-yl)-(2-propylbenzotriazol-5-yl)acetamide] | 100 | 100 | 100 | 
3 | Cc1nsc(NC(=O)Cc2ccc3nn(C)nc3c2)c1Cl [Sample 2] | 87 |  |  | 
4 | CCCn1nc2ccc(CC(=O)N=c3sn(COCC)c(C)c3Cl)cc2n1 [Sample 34, N-[2-ethoxymethyl-4-chloro-3-methylisothiazolin-5-ylidene]-(2-propylbenzo-triazol-5-yl)acetamide] | 93 |  | 81 | 100
5 | CCCC(C)n1nc2ccc(CC(=O)Nc3snc(C)c3Cl)cc2n1 (stereo not shown) [Sample 30] |  | 100 | 100 | 100
6 | CCC(C)n1nc2ccc(CC(=O)Nc3snc(C)c3Cl)cc2n1 (stereo not shown) [Sample 31] |  | 100 | 100 | 100
7 | Cc1nsc(NC(=O)Cc2ccc3nn(CC(F)(F)F)nc3c2)c1Cl [Sample 8] | 100 |  |  | 
8 | CCCCCn1nc2ccc(CC(=O)Nc3snc(C)c3Cl)cc2n1 [Sample 9] | 100 | 99 | 100 | 
9 | Cc1nsc(NC(=O)Cc2ccc3nn(-c4ccc(C(F)(F)F)cc4Cl)nc3c2)c1Cl [Sample 11] | 100 |  |  | 
